Experimental data taken from patent US20200071351A1, “TACCALONOLIDE MICROTUBULE STABILIZERS” (THE BOARD OF REGENTS OF THE UNIVERSITY OF TEXAS SYSTEM, priority 2016, published 2020).
Like-named read-outs stand apart in the source and are kept apart here.

How the values were obtained:
[1] = system: PC-3 prostate cancer cell line; experiment: Inhibition of cellular proliferation, SRB assay, PC-3 cells; format: cell-based; details: average of 3-4 independent experiments
Protocol: (§1) The HeLa cervical cancer cell line, the SK-OV-3 ovarian cancer cell line and the PC-3 prostate cancer cell line were obtained from American Type Tissue Culture Collection (Manassas, Va.) and grown in Basal Media Eagle (BME) or RPMI 1640 medium (Invitrogen; Carlsbad, Calif.) supplemented with 10% fetal bovine serum (Hyclone; Logan, Utah) and 50 μg/ml gentamicin sulfate (Invitrogen). The P-glycoprotein expressing SK-OV-3/MDR-1-6/6 cell line and the βIII-tubulin expressing WTβIII cell line have been described previously (Risinger et al., 2008).
(§2) The antiproliferative and cytotoxic effects of the taccalonolides were evaluated using the SRB assay (Skehan et al., 1990, Boyd and Paull, 1995) as previously described (Tinley et al., 2003). The concentration of drug that causes 50% inhibition of cellular proliferation (IC50) was calculated from the linear portion of the log dose response curve. The ability of the compounds to initiate cytotoxicity was also determined. […] The determination of IC50 values was performed on taccalonolide material after NMR analysis and subsequent lyophilization. Ethanol or DMSO was used as the vehicle for all cellular studies.
(§3) The ability of taccalonolides AF and AJ to inhibit the proliferation of both drug sensitive cancer cells, including ovarian cancer cells (SK-OV-3), cervical cancer cells (HeLa) and prostate cancer cells (PC-3) and drug resistant cells, including the P-glycoprotein expressing SK-OV-3 line (SK-OV-3/MDR-1-6/6) and the βIII-tubulin expressing HeLa cell line (WTβIII) was determined.
(§4) Referring to Table 3, the effect of the taccalonolides in drug resistant and sensitive cells is shown. IC50 values for inhibition of cellular proliferation for taccalonolides AF and AJ were determined in drug sensitive and drug resistant cell lines. The HeLa cell pair evaluated the effect of βIII tubulin expression on cell sensitivity and the ability of compounds to overcome drug resistance mediated by βIII tubulin expression. […] IC50 values were calculated from an average of 3-4 independent experiments, each performed in triplicate.

[2] = system: SK-OV-3/MDR-1-6/6 cell line; experiment: Inhibition of cellular proliferation, SRB assay, P-glycoprotein expressing SK-OV-3/MDR-1-6/6 cells; format: cell-based; details: for IC50: SK-OV-3/MDR-1-6/6, average of 3-4 independent experiments; for relative resistance (Rr): IC50 SK-OV-3/MDR-1-6/6 divided by IC50 SK-OV-3
Protocol: as §1, §2, §3
(§5) Referring to Table 3, the effect of the taccalonolides in drug resistant and sensitive cells is shown. IC50 values for inhibition of cellular proliferation for taccalonolides AF and AJ were determined in drug sensitive and drug resistant cell lines. The HeLa cell pair evaluated the effect of βIII tubulin expression on cell sensitivity and the ability of compounds to overcome drug resistance mediated by βIII tubulin expression. The SK-OV-3 cell line pair was used to evaluate the effects of the expression of P-glycoprotein (Pgp) on cell sensitivity and the ability of compounds to overcome Pgp-mediated drug resistence. The effects of the taccalonolides on the drug senstive prostate cancer cell line PC-3 are also presented. IC50 values were calculated from an average of 3-4 independent experiments, each performed in triplicate.

MDA-MB-231-BR-Luc2 cells = experiment: Growth of intracranially injected breast cancer cells in the brain, luciferase imaging; format: in vivo, female athymic nude mice; details: for brain tumor photon counts, day 0: day 0, 10 second exposure; for brain tumor photon counts, day 0 / brain tumor photon counts, day 7: one mouse each, AF 2.2 mg/kg ip, paclitaxel 20 mg/kg ip on days 0 and 4; for brain tumor photon counts, day 7: day 7, 10 second exposure
Protocol: Referring to FIG. 15, A brain-seeking clone of the MDA-MB-231 triple negative breast cancer cell line stably transfected with luciferase was injected intracranially (1×10^6 MDA-MB-231-BR-Luc2 cells in 5 μL PBS) into female athymic nude mice. […] On day 7, mice were again imaged as described above (FIGS. 15C, D). The brain tumor in the mouse treated with taccalonolide AF measured 2.2×10^3 photon counts with an exposure time of 10 seconds on day 0 but was undetectable with the same 10 second exposure time on day 7. A longer exposure time of 60 seconds gave a photon count of 2.4×10^3.

HeLa cells [3] = experiment: Cell cycle distribution by flow cytometry; details: 18 h, 125 nM AF, 200 nM AI, 35 nM AJ
[4] = system: SK-OV-3 ovarian cancer cell line; experiment: Inhibition of cellular proliferation, SRB assay, SK-OV-3 cells; format: cell-based; details: average of 3-4 independent experiments
Protocol: as §1, §2, §3, §4

[5] = system: βIII-tubulin expressing HeLa cell line (WTβIII); experiment: Inhibition of cellular proliferation, SRB assay, βIII-tubulin expressing WTβIII cell line; format: cell-based; details: for IC50: WTβIII, average of 3-4 independent experiments; for relative resistance (Rr): IC50 WTβIII divided by IC50 HeLa
Protocol: as §1, §2, §3, §5

HeLa cells [6] = experiment: Mitotic spindle structures, indirect immunofluorescence; format: cell-based; details: 18 h, 125 nM AF, 200 nM AI, 35 nM AJ
Protocol: Cellular microtubules in interphase and mitotic HeLa cells were visualized using indirect immunofluorescence techniques as previously described (Tinley et al., 2003). […] Representative images of interphase and mitotic cells were acquired using a Nikon Eclipse 80i fluorescence microscope and compiled using NIS Elements AR 3.0 software.
The effects of the taccalonolides on mitotic spindle structures were evaluated to test whether they caused mitotic spindle defects leading to cell cycle arrest. β-tubulin and DNA were visualized in HeLa cells by indirect immunofluorescence and DAPI staining, respectively. […] These mitotic cells contained multiple abnormal mitotic spindles, which is another common effect of microtubule stabilizing agents (FIGS. 4A-D).
The microtubule structures in mitotic cells were visualized by indirect immunofluorescence using a β-tubulin antibody.

[7] = system: human mammary epithelial cells; experiment: Cytotoxicity to normal cells; format: cell-based; details: concentrations 5 to 100-fold the IC50 values in the HeLa cancer cell line
HeLa cells [8] = experiment: Inhibition of cellular proliferation, SRB assay, HeLa cells; format: cell-based; details: for increase in potency as compared to the parent taccalonolide on C22-C23 epoxidation: HeLa IC50 ratio, parent/epoxide
Protocol: The ability of the compounds to initiate cytotoxicity was also determined. […] The determination of IC50 values was performed on taccalonolide material after NMR analysis and subsequent lyophilization. Ethanol or DMSO was used as the vehicle for all cellular studies.
The antiproliferative potencies of the taccalonolides were evaluated in HeLa cells using the SRB assay.

[9] = system: MDA-MB-231 human breast tumors; experiment: Antitumor activity in MDA-MB-231 breast tumor xenograft; format: in vivo, Nude mice; details: 2.5 mg/kg on days 0 and 4 or 2.0 mg/kg on days 0, 3, and 7
Protocol: The ability of taccalonolide AF to inhibit the growth of the aggressive human breast tumor MDA-MB-231 in a murine host was determined. Taccalonolide AF was administered at a dose of 2.5 mg/kg on days 0 and 4 or 2.0 mg/kg on days 0, 3, and 7.
Referring to FIG. 6, Nude mice bearing bilateral MDA-MB-231 human breast tumors were treated with 2.0 mg/kg of AF on days 0, 3 and 7, 2.5 mg/kg AF on days 0 and 4, or 10 mg/kg PTX on days 0, 2, 4 and 7 as a positive control. Tumor volume was measured using calipers and mass calculated with the formula: Tumor mass (mg)=0.5×[…]. Median tumor mass with standard error of the mean (n=10) are graphically represented. *p<0.05, **p<0.01.

[10] = system: purified porcine brain tubulin; experiment: Tubulin polymerization followed turbidimetrically; format: biochemical; details: 10 μM compound, 2 mg/ml tubulin, 10% glycerol, 1 mM GTP, 37° C., OD340
Protocol: The ability of these new potent taccalonolides to interact directly with tubulin was assessed by incubating purified porcine brain tubulin at a concentration of 2 mg/ml in the presence of 10% glycerol and 1 mM GTP, which allows for a baseline level of tubulin polymerization that can be followed turbidimetrically (FIG. 5).
Tubulin polymerization was monitored by turbidity measurement at OD340.

[11] = HeLa cells, SRB assay, read-out: IC50
[12] = HeLa, average of 3-4 independent experiments, read-out: IC50 for inhibition of cellular proliferation, HeLa

CC(=O)O[C@H]1C(=O)[C@@]2(C)[C@H]([C@H](OC(=O)c3ccccc3)[C@]3(O)C[C@H](OC(=O)[C@H](O)[C@@H](NC(=O)c4ccccc4)c4ccccc4)C(C)=C1C3(C)C)[C@]1(OC(C)=O)CO[C@@H]1C[C@@H]2O [Paclitaxel, paclitaxel, reference compound]
IC50 ([1]; Homo sapiens): 3.7 ± 0.2 nM | IC50 ([2]; Homo sapiens): 785 ± 88 nM | brain tumor photon counts, day 0 (MDA-MB-231-BR-Luc2 cells): 1.8×10^4 photon counts | brain tumor photon counts, day 7 (MDA-MB-231-BR-Luc2 cells): 9.0×10^4 photon counts | effect on mitotic progression / cell cycle distribution (HeLa cells [3]): mitotic arrest | IC50 ([4]; Homo sapiens): 3.8 ± 0.2 nM | IC50 ([5]; Homo sapiens, HeLa): 17.8 ± 1.2 nM

CC(=O)O[C@@H]1[C@H]2[C@H]3[C@H]([C@H](OC(C)=O)[C@H](OC(C)=O)[C@]2(C)[C@H]2[C@H](C)[C@H]4O[C@]45OC(=O)[C@@](C)(O)[C@]5(C)[C@@H]12)[C@]1(C)[C@H](C[C@@H]2O[C@@H]2[C@@H]1OC(C)=O)C(=O)[C@@H]3O [Taccalonolide AF]
IC50 [1]: 128 ± 16 nM | relative resistance (Rr) [2]: (4.6) | IC50 [2]: 366 ± 30.6 nM | brain tumor photon counts, day 0 (MDA-MB-231-BR-Luc2 cells): 2.2×10^3 photon counts | brain tumor photon counts, day 7 (MDA-MB-231-BR-Luc2 cells): undetectable | brain tumor photon count, day 7, longer exposure (MDA-MB-231-BR-Luc2 cells; day 7, 60 seconds exposure, AF 2.2 mg/kg ip on days 0 and 4): 2.4×10^3 photon count | effect on mitotic spindle structures (HeLa cells [6]): mitotic arrest of cells with multiple abnormal mitotic spindles | cytotoxicity of normal cells [7]: No cytotoxicity | IC50 [4]: 79.4 ± 3.5 nM | increase in potency as compared to the parent taccalonolide on C22-C23 epoxidation (HeLa cells [8]): 234 fold | IC50 (HeLa cells [8]; [11]): 23 nM | IC50 (HeLa cells [8]; [12]): 23.6 ± 2.1 nM | antitumor activity compared to vehicle treated controls [9]: sufficient to observe antitumor activity | antitumor activity compared to positive control 10 mg/kg paclitaxel ([9]; paclitaxel days 0, 2, 4 and 7): equivalent or greater than the positive control | relative resistance (Rr) [5]: (1.3) | IC50 [5]: 30.6 ± 3.3 nM | rate and extent of tubulin polymerization [10]: dramatically increased

CC(=O)O[C@H]1[C@H]2[C@H]([C@@H]3[C@@H](O)[C@@H]4[C@H]([C@H](C)[C@@H]5O[C@@]56OC(=O)[C@@](C)(O)[C@]46C)[C@@]3(C)[C@H]1OC(C)=O)[C@@H](O)C(=O)[C@H]1C[C@@H]3O[C@@H]3[C@H](OC(C)=O)[C@]21C [Taccalonolide AJ]
IC50 [1]: 25.1 ± 4 nM | relative resistance (Rr) [2]: (7.8) | IC50 [2]: 126 ± 12.8 nM | effect on mitotic spindle structures (HeLa cells [6]): mitotic arrest of cells with multiple abnormal mitotic spindles | cytotoxicity of normal cells [7]: No cytotoxicity | IC50 [4]: 16.3 ± 0.8 nM | increase in potency as compared to the parent taccalonolide on C22-C23 epoxidation (HeLa cells [8]): 743 fold | IC50 (HeLa cells [8]; [11]): 4.3 nM | IC50 (HeLa cells [8]; [12]): 6.6 ± 0.3 nM | relative resistance (Rr) [5]: (1.7) | IC50 [5]: 11.1 ± 0.6 nM | rate and extent of tubulin polymerization [10]: dramatically increased
